From PubChem BioAssay (NCI) come the findings set out here.

Among the test systems are SF-268 CNS; KM12 colon; M14 melanoma; UO-31 renal; SK-MEL-2 melanoma; EKVX NSCLC; NCI-H226 lung; RPMI-8226 leukemia; SK-MEL-28 melanoma; RXF 393 renal; LOX IMVI melanoma; BT-549 breast; A549 NSCLC; NCI-H522 lung.
Test in all cases: inhibition of tumour cell growth, NCI panel, 48 h

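All cell lines were grown in 96-well plates and treated with compound for 48 hours. The concentration for full growth arrest is given as TGI.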 Where only a bound is given, the exact number is not on record here.

As for `Cc1ccc(S[C@@](C=O)(NC(=O)OCc2ccccc2)C(F)(F)F)cc1`, the TGI in the experiment with SF-268 CNS is over 100 µM; in the experiment with KM12 colon, 52.8 µM; in the experiment on M14 melanoma it was 78.6 µM; in the experiment on UO-31 renal, 36.6 µM; in the experiment with SK-MEL-2 melanoma it was 60.8 µM; with EKVX NSCLC it was 54 µM. Further, the TGI in the experiment with NCI-H226 lung is 40.2 µM; in the experiment on RPMI-8226 leukemia, 57.2 µM; with SK-MEL-28 melanoma it was 67.1 µM; with RXF 393 renal, 31.2 µM; with LOX IMVI melanoma, 48.8 µM; in the experiment on BT-549 breast it was 81.8 µM. Moreover, the TGI in the experiment with A549 NSCLC was found to be 88.3 µM.

`C[C@H]1CC[C@@]2(OC1)O[C@H]1C[C@H]3[C@@H]4CC[C@@H]5C[C@@H](OC6OC(CO)C(O)C(O)C6OC6OC(CO)C(O)C(O)C6O)CC[C@]5(C)[C@H]4CC[C@]3(C)[C@H]1[C@@H]2C` (some centres undefined): the TGI in the experiment on SF-268 CNS was 4.25 µM; in the experiment on KM12 colon it was 4.62 µM; in the experiment on M14 melanoma it was 3.75 µM; in the experiment on UO-31 renal, 3.67 µM; with NCI-H522 lung it was 4.75 µM; with SK-MEL-2 melanoma, 4.03 µM. In addition, the TGI stood at 3.79 µM in the experiment with EKVX NSCLC; 4.2 µM with NCI-H226 lung; 3.97 µM with RPMI-8226 leukemia; 3.75 µM in the experiment on LOX IMVI melanoma; 4.1 µM in the experiment on BT-549 breast; 3.69 µM with A549 NSCLC.

As for `O=c1[nH]c(N/N=C\C(O)C(O)C(O)C(O)CO)nc2ccccc12` (centres undefined), the TGI with SF-268 CNS, in the experiment on KM12 colon, in the experiment on M14 melanoma, in the experiment with UO-31 renal, in the experiment on SK-MEL-2 melanoma and with EKVX NSCLC was over 100 µM in each case. Besides, the TGI in the experiment on NCI-H226 lung, in the experiment with RPMI-8226 leukemia, with SK-MEL-28 melanoma, in the experiment with LOX IMVI melanoma, in the experiment on BT-549 breast and in the experiment on A549 NSCLC was over 100 µM each time.

On to `CC(=O)c1ccc(N=NN2CCCC2)cc1`, for which the TGI in the experiment on SF-268 CNS, with KM12 colon, in the experiment on M14 melanoma, in the experiment on UO-31 renal, in the experiment with NCI-H522 lung and in the experiment on SK-MEL-2 melanoma was over 100 µM each time. For the same compound, the TGI with EKVX NSCLC, in the experiment with NCI-H226 lung, in the experiment on RXF 393 renal, in the experiment with LOX IMVI melanoma and in the experiment on BT-549 breast was over 100 µM throughout.

On to `COC(=O)c1cc(S(=O)(=O)NC2=NCC(C)NN2)c(S)cc1Cl` (centres undefined), for which the TGI in the experiment with SF-268 CNS is 60.6 µM; in the experiment with KM12 colon, over 100 µM; in the experiment with M14 melanoma, over 100 µM; in the experiment with UO-31 renal, over 100 µM; in the experiment on NCI-H522 lung, 47.5 µM; in the experiment on SK-MEL-2 melanoma it was 84.5 µM. Further, the TGI in the experiment on EKVX NSCLC, in the experiment on RPMI-8226 leukemia, with SK-MEL-28 melanoma, with LOX IMVI melanoma, in the experiment with BT-549 breast and in the experiment with A549 NSCLC was over 100 µM each time.

In the case of `Cc1c(C)c2c(c(N)c1C#N)C(=O)N(Cc1ccc(S(N)(=O)=O)cc1)C2=O`, the TGI with SF-268 CNS is over 86.3 µM; in the experiment on KM12 colon, over 100 µM; in the experiment with M14 melanoma, over 73.6 µM; with UO-31 renal, over 100 µM; in the experiment with SK-MEL-2 melanoma, over 100 µM; in the experiment on EKVX NSCLC, over 100 µM. Besides, the TGI in the experiment on NCI-H226 lung was over 62.9 µM; in the experiment with RPMI-8226 leukemia, over 100 µM; in the experiment on SK-MEL-28 melanoma, over 100 µM; with RXF 393 renal, 39.3 µM; in the experiment on LOX IMVI melanoma it was over 100 µM; in the experiment on BT-549 breast, over 100 µM. The compound further displayed a TGI with A549 NSCLC of over 100 µM.

Consider `O=C(NCCC1CNc2ccccc21)OCc1ccccc1` (centres undefined), for which the TGI in the experiment on SF-268 CNS, in the experiment on KM12 colon, with M14 melanoma, in the experiment with UO-31 renal, in the experiment on NCI-H522 lung and in the experiment on SK-MEL-2 melanoma was over 100 µM each time. The TGI in the experiment on EKVX NSCLC, in the experiment with RPMI-8226 leukemia, with SK-MEL-28 melanoma, with RXF 393 renal, with BT-549 breast and with A549 NSCLC was over 100 µM each time.

Regarding `COc1cc(C2c3cc4c(cc3OC(NN)C2C)OCO4)cc(OC)c1O` (centres undefined), the TGI in the experiment with SF-268 CNS was over 100 µM; with KM12 colon, 41.7 µM; in the experiment on M14 melanoma, over 100 µM; in the experiment on UO-31 renal, 61.8 µM; with NCI-H522 lung, 42.2 µM; in the experiment with SK-MEL-2 melanoma, 13.1 µM. Besides, the TGI is 62 µM in the experiment with NCI-H226 lung; 17.8 µM in the experiment with RPMI-8226 leukemia; 33.9 µM in the experiment on SK-MEL-28 melanoma; over 100 µM with RXF 393 renal; 51.3 µM in the experiment with BT-549 breast; 53.5 µM in the experiment with A549 NSCLC.

For `CC1=NN(c2nc(N)nc(C(C)Cl)n2)C(C)(C)C1` (centres undefined), the TGI in the experiment on SF-268 CNS, in the experiment on KM12 colon, with M14 melanoma, in the experiment on UO-31 renal, in the experiment on SK-MEL-2 melanoma and with EKVX NSCLC was over 100 µM in each case. The TGI in the experiment with NCI-H226 lung, with RPMI-8226 leukemia, in the experiment with SK-MEL-28 melanoma, in the experiment on RXF 393 renal, in the experiment with LOX IMVI melanoma and in the experiment with BT-549 breast was over 100 µM in each case.

With `Cc1cc(O)c(/C=N/C(N)=S)c(=O)o1`, the TGI in the experiment with SF-268 CNS, in the experiment with KM12 colon, with M14 melanoma, in the experiment with UO-31 renal, with NCI-H522 lung and with SK-MEL-2 melanoma was over 100 µM throughout. Moreover, the TGI in the experiment with EKVX NSCLC, with NCI-H226 lung, in the experiment with RXF 393 renal, in the experiment on BT-549 breast and in the experiment on A549 NSCLC was over 100 µM in each case.

Take `CCOC(=O)c1cn(CC)c(=O)n2c1nc1ccccc12`: the TGI in the experiment with KM12 colon was over 100 µM; with M14 melanoma, over 100 µM; in the experiment on UO-31 renal it was 10.2 µM; in the experiment with SK-MEL-2 melanoma, over 100 µM; in the experiment with EKVX NSCLC, over 100 µM; in the experiment on NCI-H226 lung, over 100 µM. Besides, the TGI in the experiment with RPMI-8226 leukemia was 75.1 µM; in the experiment with SK-MEL-28 melanoma, over 100 µM; in the experiment with RXF 393 renal, over 100 µM; with LOX IMVI melanoma, 84.1 µM; in the experiment on BT-549 breast, over 100 µM; in the experiment on A549 NSCLC, over 100 µM.

Take `Cc1cccc2sc(NC(=O)NS(=O)(=O)n3cnc4ccccc43)nc12`: the TGI was over 100 µM with SF-268 CNS; over 100 µM in the experiment with KM12 colon; over 100 µM in the experiment on M14 melanoma; 61.5 µM in the experiment on UO-31 renal; 62.9 µM in the experiment with NCI-H522 lung; 35.6 µM in the experiment on SK-MEL-2 melanoma. In addition, the TGI in the experiment with EKVX NSCLC is over 100 µM; in the experiment with NCI-H226 lung it was over 100 µM; in the experiment with RPMI-8226 leukemia, 84.3 µM; in the experiment with SK-MEL-28 melanoma it was over 100 µM; in the experiment on RXF 393 renal it was 49.1 µM; in the experiment with BT-549 breast, 59.9 µM. In the experiment on A549 NSCLC, this compound gave a TGI of over 100 µM.

With `Cc1cc(N(CCC#N)CCC#N)ccc1/C(N=Nc1ccccc1)=N\NC(=O)c1cc(Cl)ccc1O`, the TGI with SF-268 CNS was over 100 µM; in the experiment on KM12 colon, over 100 µM; in the experiment on M14 melanoma, over 100 µM; with UO-31 renal, 41.3 µM; in the experiment on NCI-H522 lung, 31 µM; in the experiment on SK-MEL-2 melanoma, over 100 µM. For the same compound, the TGI is over 100 µM in the experiment on EKVX NSCLC; over 100 µM in the experiment with NCI-H226 lung; over 100 µM in the experiment on RPMI-8226 leukemia; 70.2 µM in the experiment with RXF 393 renal; 57 µM in the experiment with BT-549 breast; over 100 µM with A549 NSCLC.

Turning to `O=C(c1ccc(Cl)cc1)N(C(=O)N1CCCCC1)c1ccccc1`, the TGI with SF-268 CNS, in the experiment on KM12 colon, in the experiment with M14 melanoma, in the experiment on UO-31 renal, in the experiment on SK-MEL-2 melanoma and in the experiment on EKVX NSCLC was over 100 µM in each case. Further, the TGI in the experiment on NCI-H226 lung, with RPMI-8226 leukemia, in the experiment on SK-MEL-28 melanoma, in the experiment with LOX IMVI melanoma and with BT-549 breast was over 100 µM each time.

As for `CSc1nncc(-c2cc3c(c(SC)n2)CCCC3)n1`, the TGI in the experiment with SF-268 CNS, with KM12 colon, in the experiment on M14 melanoma, with UO-31 renal, in the experiment on NCI-H522 lung and in the experiment with SK-MEL-2 melanoma was over 100 µM in each case. The TGI in the experiment with EKVX NSCLC, with NCI-H226 lung, with RPMI-8226 leukemia, with SK-MEL-28 melanoma, with RXF 393 renal and in the experiment with BT-549 breast was over 100 µM in each case. Moreover, in the experiment with A549 NSCLC, the TGI is over 100 µM.

For `CC(N)(CC(O)(C(F)(F)Cl)C(F)(F)Cl)C(=O)O` (centres undefined), the TGI with SF-268 CNS, in the experiment on KM12 colon, with M14 melanoma, in the experiment with UO-31 renal, with NCI-H522 lung and in the experiment on EKVX NSCLC was over 10 µM in each case. In addition, the TGI in the experiment on NCI-H226 lung, in the experiment with SK-MEL-28 melanoma, with LOX IMVI melanoma, in the experiment on BT-549 breast and in the experiment with A549 NSCLC was over 10 µM throughout.

Regarding `Cc1ccc(N=N/C(=N/NC(=O)c2ccccc2)c2ccc(N(CCC#N)CCC#N)cc2C)cc1`, the TGI with SF-268 CNS was over 100 µM; in the experiment on KM12 colon, over 100 µM; in the experiment on M14 melanoma, over 100 µM; with UO-31 renal it was over 100 µM; in the experiment with NCI-H522 lung, 42.2 µM; in the experiment with SK-MEL-2 melanoma, over 100 µM. The TGI with EKVX NSCLC, in the experiment on NCI-H226 lung, in the experiment with RPMI-8226 leukemia, in the experiment with RXF 393 renal, with BT-549 breast and in the experiment on A549 NSCLC was over 100 µM each time.
